Assay results taken from ChEMBL document CHEMBL5241111, “Non-steroidal anti-inflammatory drugs: recent advances in the use of synthetic COX-2 inhibitors” (RSC Med Chem, 2022).

Legend:
[1] = molecular target: T1, Prostaglandin G/H synthase 2 (Homo sapiens, UniProt P35354); test: Inhibition of human COX-2 using arachidonic acid as substrate incubated for 30 secs by ELISA
T1 sequence (P35354 whole entry): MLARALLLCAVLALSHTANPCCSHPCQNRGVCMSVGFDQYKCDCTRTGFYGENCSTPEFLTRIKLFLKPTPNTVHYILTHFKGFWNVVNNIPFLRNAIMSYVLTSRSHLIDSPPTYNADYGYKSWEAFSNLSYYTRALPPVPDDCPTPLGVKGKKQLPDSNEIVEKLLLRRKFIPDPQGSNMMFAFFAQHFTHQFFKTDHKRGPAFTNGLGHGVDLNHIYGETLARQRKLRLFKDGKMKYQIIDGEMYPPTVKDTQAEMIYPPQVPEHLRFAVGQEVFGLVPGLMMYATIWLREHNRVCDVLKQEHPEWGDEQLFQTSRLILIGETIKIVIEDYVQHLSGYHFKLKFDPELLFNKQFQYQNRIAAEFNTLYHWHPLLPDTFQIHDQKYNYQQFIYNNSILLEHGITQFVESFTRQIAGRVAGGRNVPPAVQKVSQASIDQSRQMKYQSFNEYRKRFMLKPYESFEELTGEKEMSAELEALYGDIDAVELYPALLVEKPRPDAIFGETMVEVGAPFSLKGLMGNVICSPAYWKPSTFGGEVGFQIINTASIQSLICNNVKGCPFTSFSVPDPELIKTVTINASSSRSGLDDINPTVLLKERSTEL

[2] = molecular target: COX-1/COX-2 (Homo sapiens) (UniProt P35354+P23219); test: Selectivity index, ratio of IC50 for inhibition of COX-1 (unknown origin) to IC50 for inhibition of COX-2 (unknown origin); assay type: protein assay
[3] = molecular target: T1, Prostaglandin G/H synthase 2; test: Inhibition of human recombinant COX-2 using arachidonic acid as substrate preincubated for 5 mins followed by substrate addition and measured after 10 mins by microplate reader analysis
[4] = molecular target: T1, Prostaglandin G/H synthase 2; test: Inhibition of human COX-2 using arachidonic acid as substrate preincubated for 5 mins followed by substrate addition and measured after 2 mins by colorimetric assay
Dihydrofolate reductase = molecular target: T2, Dihydrofolate reductase (Homo sapiens, UniProt P00374); test: Inhibition of DHFR (unknown origin)
T2 sequence (P00374 whole entry): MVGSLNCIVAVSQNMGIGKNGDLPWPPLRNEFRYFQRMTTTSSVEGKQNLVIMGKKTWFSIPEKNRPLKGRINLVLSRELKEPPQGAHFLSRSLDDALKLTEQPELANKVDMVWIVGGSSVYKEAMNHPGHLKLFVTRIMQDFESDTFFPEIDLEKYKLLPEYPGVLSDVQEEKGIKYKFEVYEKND

[5] = Inhibition of soybean 5-LOX using linoleic acid as substrate preincubated for 5 mins followed by substrate addition and measured after 3 mins; set-up: species or system Glycine max
Alpha-glucosidase = Alpha-glucosidase (Saccharomyces cerevisiae S288c, UniProt P53341+P38158+P07265); test: Inhibition of Saccharomyces cerevisiae alpha-glucosidase using PNPG as substrate preincubated for 10 mins followed by substrate addition by spectrophotometric method; assay type: protein assay
Rattus norvegicus = test: Antiinflammatory activity against rat model of carrageenan induced paw edema assessed as inhibition of edema measured after 1 to 6 hrs relative to control; assay type: functional; settings: time 1-6 hrs
[6] = molecular target: T1, Prostaglandin G/H synthase 2; test: Inhibition of human COX-2 using arachidonic acid as substrate preincubated for 10 mins followed by substrate addition and measured after 30 secs by ELISA
[7] = molecular target: T3, Polyunsaturated fatty acid 5-lipoxygenase (Homo sapiens, UniProt P09917); test: Inhibition of 5-LOX (unknown origin)
T3 sequence (P09917 whole entry): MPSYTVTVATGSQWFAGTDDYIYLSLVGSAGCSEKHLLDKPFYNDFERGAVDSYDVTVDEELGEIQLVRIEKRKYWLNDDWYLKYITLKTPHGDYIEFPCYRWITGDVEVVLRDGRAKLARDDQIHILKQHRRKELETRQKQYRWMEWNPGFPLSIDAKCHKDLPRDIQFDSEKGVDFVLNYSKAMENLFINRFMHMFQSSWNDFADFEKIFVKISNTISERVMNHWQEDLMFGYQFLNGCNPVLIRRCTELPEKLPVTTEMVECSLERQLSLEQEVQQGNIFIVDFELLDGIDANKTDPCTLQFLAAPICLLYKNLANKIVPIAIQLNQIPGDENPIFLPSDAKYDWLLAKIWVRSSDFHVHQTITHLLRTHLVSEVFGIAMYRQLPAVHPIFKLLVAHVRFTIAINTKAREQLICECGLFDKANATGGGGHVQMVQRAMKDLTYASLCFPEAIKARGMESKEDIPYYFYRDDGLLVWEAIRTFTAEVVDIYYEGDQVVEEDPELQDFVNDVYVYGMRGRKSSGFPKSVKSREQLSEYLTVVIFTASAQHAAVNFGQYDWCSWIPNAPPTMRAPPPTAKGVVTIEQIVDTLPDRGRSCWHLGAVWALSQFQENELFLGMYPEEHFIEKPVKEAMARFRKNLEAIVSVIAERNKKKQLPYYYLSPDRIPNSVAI

[8] = molecular target: T1, Prostaglandin G/H synthase 2; test: Inhibition of COX-2 (unknown origin)
[9] = molecular target: cGMP-specific 3',5'-cyclic phosphodiesterase (Homo sapiens) (UniProt O76074); test: Inhibition of human PDE5 using cGMP as substrate at 10 uM preincubated for 5 mins followed by substrate addition and measured after 30 mins by HPLC analysis relative to control; settings: time 35.0 min

## CS(=O)(=O)c1ccc(C(=O)OCCn2cc(-c3ccc(C(F)(F)F)cc3)nn2)cc1
[1]
  IC50: 0.002 µM
[2]
  Ratio IC50: 0.008

## CC1=NN(c2ccc(S(N)(=O)=O)cc2)C(=O)/C1=C\c1c[nH]c2ccccc12
[3]
  IC50: 0.15 µM

## CC1=c2c(OCc3nnc(SCC(=O)N4CCN(c5ccccc5)CC4)o3)nn(C)c(=O)c2=C(C)C1c1ccccc1 (stereo not drawn)
[4]
  IC50: 6.8 µM

## NS(=O)(=O)c1ccc(N2C(=O)/C(=C/c3ccc(OC(=O)c4ccccc4)cc3)N=C2c2ccccc2)cc1
Dihydrofolate reductase
  IC50: 0.28 µM

## COc1ccc2cc([C@H](C)C(=O)O)ccc2c1 [NAPROXEN]
[5]
  IC50: 22 µM

## CC1=NN(c2ccc(S(N)(=O)=O)cc2)C(=O)/C1=C\c1sccc1C
[3]
  IC50: 0.15 µM

## Nc1ccc(S(=O)(=O)Nc2ncccn2)cc1 [SULFADIAZINE]
Dihydrofolate reductase
  IC50: 0.13 µM

## CC(=O)Oc1cc2oc(-c3ccc(F)cc3)cc2cc1-c1c[se]nn1
Alpha-glucosidase
  IC50: 1.03 µM

## COc1ccc(-c2cc(-c3ccc(F)cc3)n(-c3ccc(S(N)(=O)=O)cc3)n2)cc1
Rattus norvegicus
  inhibition (INH): 42.1%

## COC(=O)/C(=C/c1ccccc1)NC(=O)[C@H](CC(=O)O)NC(=O)[C@@H](C)c1ccc2cc(OC)ccc2c1
[5]
  IC50: 48.9 µM

## COc1ccc2cc([C@H](C)C(=O)N[C@@H](Cc3ccc(O)cc3)C(=O)N/C(=C\c3ccccc3)C(=O)O)ccc2c1
[5]
  IC50: 48.9 µM

## COc1ccc2cc([C@H](C)C(=O)N[C@@H](Cc3c[nH]c4ccccc34)C(=O)N/C(=C\c3ccccc3)C(=O)O)ccc2c1
[5]
  IC50: 48.9 µM

## CC1=NN(c2ccc(S(N)(=O)=O)cc2)C(=O)/C1=C\c1cccc(OCc2ccccc2)c1
[3]
  IC50: 0.15 µM

## O=c1[nH]n2c(=O)c3ccccc3nc2/c1=C/c1ccc(Br)cc1
[6]
  IC50: 0.047 µM
[7]
  IC50: 0.6 µM

## CC(=O)N1N=C(c2nnn(-c3ccc(S(N)(=O)=O)cc3)c2C)CC1c1ccccc1 (stereo not drawn)
[2]
  Ratio IC50: 1.95
[8]
  IC50: 2.61 µM

## NS(=O)(=O)c1ccc(-c2nn(-c3ccc([N+](=O)[O-])cc3)cc2C=O)cc1
[1]
  IC50: 0.017 µM
[2]
  Ratio IC50: 0.008

## NS(=O)(=O)c1ccc(C(=O)OCCn2cc(-c3ccc(C(F)(F)F)cc3)nn2)cc1
[1]
  IC50: 0.131 µM
[2]
  Ratio IC50: 0.008

## COC(=O)/C(=C/c1ccccc1)NC(=O)[C@H](Cc1ccc(O)cc1)NC(=O)[C@@H](C)c1ccc2cc(OC)ccc2c1
[5]
  IC50: 48.9 µM

## C/C=C(\NC(=O)[C@H](Cc1c[nH]c2ccccc12)NC(=O)[C@@H](C)c1ccc2cc(OC)ccc2c1)C(=O)OC
[5]
  IC50: 48.9 µM

## C/C(=N\NC(=O)c1nnn(-c2ccc(S(N)(=O)=O)cc2)c1C)c1nnn(-c2ccc(S(N)(=O)=O)cc2)c1C
[2]
  Ratio IC50: 1.95
[8]
  IC50: 2.61 µM

## COc1ccc2cc([C@H](C)C(=O)N[C@@H](CCCCN)C(=O)N/C(=C\c3ccccc3)C(=O)O)ccc2c1
[5]
  IC50: 48.9 µM

## O=Cc1cn(-c2ccc(Br)cc2)nc1-c1ccc(Br)cc1
[1]
  IC50: 0.017 µM
[2]
  Ratio IC50: 0.008

## CC(=O)c1nnn(-c2ccc(S(N)(=O)=O)cc2)c1C
[2]
  Ratio IC50: 1.95
[8]
  IC50: 2.61 µM

## CC(=O)Oc1cc2oc(-c3cccc(Cl)c3)cc2cc1-c1c[se]nn1
Alpha-glucosidase
  IC50: 1.03 µM

## O=c1[nH]n2c(=O)c3ccccc3nc2/c1=C/c1cccc(F)c1
[6]
  IC50: 0.047 µM
[7]
  IC50: 0.6 µM

## COc1ccc(N/C(C)=C\C(=O)Nc2nccs2)cc1
[9]
  inhibition: 100%

## CCCCCC1C(C)=c2c(OCc3nnc(SCC(=O)N4CCN(c5ccccc5)CC4)o3)nn(C)c(=O)c2=C1C (stereo not drawn)
[4]
  IC50: 6.8 µM

## C/C(=C/C(=O)Nc1nccs1)Nc1ccccc1
[9]
  inhibition: 100%

## CC1=c2c(OCc3nnc(SCC(=O)N4CCN(c5ncccn5)CC4)o3)nn(C)c(=O)c2=C(C)C1c1ccccc1 (stereo not drawn)
[4]
  IC50: 6.8 µM
